Laboratory results as given in paper PMC9545004, “Transglutaminase 2 affinity and enzyme‐substrate intermediate stability as determining factors for T‐cell responses to gluten peptides in celiac disease” (European Journal of Immunology, 2022).
No end group written: not given here. *: point of attachment. FITC = O=C1OC2(c3ccc(O)cc3Oc3cc(O)ccc32)c2ccc(NC(=S)*)cc21; Ahx = NCCCCCC(=O)O

T1: Recombinant human TG2 (Homo sapiens, UniProt P21980)
T1 construct: His-tag (C); made in house; host or cells: Sf+ express insect cells (pACAB3 vector)
T1 sequence (P21980 1-687): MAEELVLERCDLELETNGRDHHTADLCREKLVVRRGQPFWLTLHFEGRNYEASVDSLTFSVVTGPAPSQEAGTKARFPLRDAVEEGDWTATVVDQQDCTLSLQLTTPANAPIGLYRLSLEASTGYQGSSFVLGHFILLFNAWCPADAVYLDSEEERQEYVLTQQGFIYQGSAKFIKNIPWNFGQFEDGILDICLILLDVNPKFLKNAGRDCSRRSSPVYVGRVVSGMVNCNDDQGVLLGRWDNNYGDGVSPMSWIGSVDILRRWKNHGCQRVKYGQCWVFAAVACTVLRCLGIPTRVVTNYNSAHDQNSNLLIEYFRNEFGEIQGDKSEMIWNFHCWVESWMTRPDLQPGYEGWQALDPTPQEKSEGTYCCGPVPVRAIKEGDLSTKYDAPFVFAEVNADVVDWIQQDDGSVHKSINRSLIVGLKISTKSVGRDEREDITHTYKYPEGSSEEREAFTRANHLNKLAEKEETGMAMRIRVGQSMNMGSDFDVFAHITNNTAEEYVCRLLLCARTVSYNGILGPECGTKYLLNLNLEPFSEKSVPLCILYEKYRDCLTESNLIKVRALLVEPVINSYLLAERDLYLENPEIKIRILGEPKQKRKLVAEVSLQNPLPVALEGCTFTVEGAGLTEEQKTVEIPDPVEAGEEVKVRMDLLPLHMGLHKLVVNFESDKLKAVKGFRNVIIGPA

T2: Recombinant human transglutaminase 2 (human, UniProt P21980 1-687)
T2 construct: human transglutaminase 2 (TGM2), cloned into the pACAB3 vector; Used enzymatically active with CaCl2; also called TG2; recombinant TG2
T2 sequence (looked up): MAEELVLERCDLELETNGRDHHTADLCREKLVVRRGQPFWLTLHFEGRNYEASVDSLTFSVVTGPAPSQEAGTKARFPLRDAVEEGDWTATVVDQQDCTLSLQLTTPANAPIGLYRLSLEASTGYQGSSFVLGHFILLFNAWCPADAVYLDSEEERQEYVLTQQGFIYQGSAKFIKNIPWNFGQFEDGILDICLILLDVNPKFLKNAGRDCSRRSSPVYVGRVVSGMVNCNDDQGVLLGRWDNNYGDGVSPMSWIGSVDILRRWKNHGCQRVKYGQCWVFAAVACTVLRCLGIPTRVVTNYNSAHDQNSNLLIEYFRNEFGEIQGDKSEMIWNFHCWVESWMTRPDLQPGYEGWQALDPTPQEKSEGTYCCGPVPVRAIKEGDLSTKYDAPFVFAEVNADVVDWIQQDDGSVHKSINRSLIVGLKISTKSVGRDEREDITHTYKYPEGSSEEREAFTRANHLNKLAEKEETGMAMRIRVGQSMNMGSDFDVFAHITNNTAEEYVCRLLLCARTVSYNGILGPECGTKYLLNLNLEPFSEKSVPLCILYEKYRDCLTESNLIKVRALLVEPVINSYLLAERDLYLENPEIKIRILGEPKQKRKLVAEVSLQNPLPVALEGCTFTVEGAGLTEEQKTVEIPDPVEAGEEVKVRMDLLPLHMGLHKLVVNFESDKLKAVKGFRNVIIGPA


Key:
Recombinant human TG2 = target: T1, Recombinant human TG2; assay: TG2 enzyme kinetic assay, GDH-coupled ammonia release; type: biochemical; conditions: for Km / kcat / kcat/Km: GDH-coupled, MOPS pH 7.2, TG2 50 µg/mL, 37°C, A340; for Km / kcat: mean and SD from three independent experiments
Source text: To test the influence of substrate affinity for TG2 on B‐cell uptake, we determined kinetic parameters for gluten peptides harboring the essential TG2 targeted glutamine residue within the DQ2.5‐glia‐α2, DQ2.5‐glia‐ω2, DQ2.5‐glia‐γ1, or DQ2.5‐glia‐γ3 T‐cell epitopes. To directly compare differences in TG2 affinity between the glutamines from the different peptides, we tested 9‐mer peptides harboring only one TG2 targeted glutamine residue.
Recombinant human TG2 with a C‐terminal His‐tag was expressed in Sf+ express insect cells. Briefly, human TGM2 was cloned into the pACAB3 vector, and protein was expressed for 3 days followed by lysis and purification by nickel‐nitrilotriacetic acid affinity chromatography as previously described.
Kinetic parameters for the 9‐mer peptides α2, ω2, γ1, and γ3 were measured using a coupled GDH catalyzed reaction assay performed in microtiter plates as previously described. Here, the following components were used: (1) a 5× stock MOPS buffer consisting of 1 M 3‐(N‐morpholino)propanesulfonic acid pH 7.2, 25 mM CaCl2, 5 mM ETDA, and 50 mM α‐ketoglutarate (Sigma Aldrich) in distilled water; (2) nicotinamide adenine dinucleotide hydrogen (NADH, Sigma–Aldrich); (3) GDH from beef liver (Roche); (4) gluten peptides; (5) recombinant TG2 solved in 1mM EDTA/Tris‐buffered saline. Components 1–4 were mixed in PCR‐strips (Axygen) to give final concentrations of 1x stock buffer, 1 mM NADH, 0.125 U/µL GDH, and various peptide concentrations. The mixture was preincubated in the dark for 15 min, and the reaction was started by the addition of recombinant TG2 (final concentration of 50 µg/mL) followed by transfer to a microtiter plate (Thermo Scientific). Absorbance (340 nm) was measured continuously for 50 min at 37°C using a Victor 3V Multi‐Label Microplate Reader (Perkin Elmer‐Wallac). Initial reaction velocities were calculated from the linear area of the absorbance curves by determining the change in absorbance over time compared to the change from an NADH standard curve. The Michaelis constants (K M) and turnover rates (k cat) were calculated using the k cat equation analysis tool in GraphPad Prism 8.3.0 (GraphPad Software).

[1] = target: T2, Recombinant human transglutaminase 2; assay: flow cytometry on cells; recombinant TG2 (3 µg/mL), 5 µM FITC peptide and 2 mM CaCl2 in RPMI with A20 cells expressing the TG2-specific BCR 679-14-E06, 37°C; stopped with EDTA, cells washed and fixed; cell-bound FITC peptide read as delta MFI against A20 cells with the non-TG2-specific BCR 693-2-F02; conditions: both partners purified
[2] = target: T2, Recombinant human transglutaminase 2

Km (Recombinant human TG2) [µM] | kcat (Recombinant human TG2) [min^–1] | binding result [1] | Km of TG2 turnover, GDH-coupled ammonia release assay (formation of the thioester intermediate complex), 37°C, pH 7.2 [2] [mM] | Molecule | other results
130 ± 30 | 23.2±1.0 |  |  | Ac‐QP Q QPYPQQ [γ3] | 
240 ± 20 | 24.0±0.7 |  |  | Ac‐QQSFP Q QQR [γ1] | kcat/Km (Recombinant human TG2): 100 min^–1/mM; affinity to TG2 (Km), in words (Recombinant human TG2; native 9-mer peptides, compared with the other 9-mers): twofold lower affinity to TG2
130 ± 20 | 25.7±0.8 |  |  | PQP Q LPYPQ [α2] | kcat/Km (Recombinant human TG2): 197 min^–1/mM
100 ± 20 | 27.6±1.0 |  |  | PQP Q QPFPW [ω2] | kcat/Km (Recombinant human TG2): 276 min^–1/mM
 |  | binds |  | {FITC-Ahx}-QPQQPYPQQ (native 9-mer from γ-gliadin; The unlabelled peptide is N-terminally acetylated; also called FITC-γ3; source: synthetic peptide) [FITC-labeled γ3 9-mer gliadin peptide (native)] | 
 |  | binds |  | {FITC-Ahx}-PQPQLPYPQ (also called FITC-α2; source: synthetic peptide) [FITC-labeled α2 9-mer gliadin peptide (native)] | 
 |  |  | 0.13 | PQPQLPYPQ [α2 9-mer gliadin peptide (native, harbouring the DQ2.5-glia-α2 epitope)] | 
 |  |  | 0.1 | PQPQQPFPW [ω2 9-mer gliadin peptide (native, harbouring the DQ2.5-glia-ω2 epitope)] | 
 |  | binds |  | {FITC-Ahx}-PQPQQPFPW (also called FITC-ω2; source: synthetic peptide) [FITC-labeled ω2 9-mer gliadin peptide (native)] | 
 |  |  | 0.24 | Ac-QQSFPQQQR | 
 |  | binds |  | {FITC-Ahx}-QQSFPQQQR (native 9-mer from γ-gliadin; The unlabelled peptide is N-terminally acetylated; also called FITC-γ1; source: synthetic peptide) [FITC-labeled γ1 9-mer gliadin peptide (native)] | 
 |  |  | 0.13 | Ac-QPQQPYPQQ | 
